Test results published in PMC3433420 (PLoS ONE, 2012).
Residues, ends and D or L forms follow the SMILES beside them.

What was measured:
SH2D2A SH2 domain = SH2D2A SH2 domain (Homo sapiens, UniProt Q9NP31); test: FP saturation binding assay
SH2D1A SH2 domain = molecular target: T1, SH2D1A SH2 domain (Homo sapiens, UniProt O60880); test: FP saturation binding assay; conditions: for KD range of recruitment of SH2D1A (SHD1A [sic]): FP saturation assay
T1 sequence (O60880 6-104 limits assumed): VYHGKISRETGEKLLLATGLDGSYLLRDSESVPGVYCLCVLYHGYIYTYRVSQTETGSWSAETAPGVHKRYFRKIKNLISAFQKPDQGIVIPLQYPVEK

[1] = molecular target: T2, PIK3R3-NC tandem SH2 domains (Homo sapiens, UniProt Q92569); test: FP saturation binding assay; conditions: Protein PIK3R3-NC; FP saturation binding, high-confidence ErbB interactions; mean over replicate hits
T2 construct: the tandem protein was included in our analysis with all internal amino acids linking the domains; 6X His; thioredoxin; made in house; host or cells: E. coli BL21(DE3)pLysS
Method: (§1) (See Figure 1A) Rhodamine-labeled peptides were dissolved in assay buffer (20 mM HEPES, 100 mM KCl, 0.1% Tween-20, 5 mM DTT, pH 7.8), diluted to a concentration of 20 nM, and plated into black 384-well plates (Corning, Corning, NY) at 5 µL/well using a Perkin Elmer EP3 pipetting workstation (V&P Scientific, Inc., San Diego, CA). SH2, PTB, and thioredoxin control proteins were plated into the first column of 2 mL 96-well plates (Corning) at a concentration of 20 µM and serially diluted 1∶2 into freezing buffer (300 mM NaCl, 50 mM Na2PO4, pH 8, 20% glycerol v/v) eleven times using a Tecan Freedom EVO 100 workstation (Tecan, Männedorf, Switzerland). For the interaction assay, 5 µL of each of the twelve protein concentrations was added to the peptide-containing 384-well plates via the EP3 resulting in a protein dilution range of 0.002–10 µM and a final volume of 10 µL; peptide concentration was fixed at 10 nM. Peptide/protein samples were incubated for 20 minutes at room temperature in the dark and fluorescence polarization (FP) was measured in an Analyst GT multimode reader (Molecular Devices, Sunnyvale, CA) with excitation and emission wavelengths of 530 nm and 555 nm, respectively. Experimental values were output as millipolarization (mP) units and imported into MATLAB (The MathWorks, Inc., Natick, MA) in which equation (1) was used to determine dissociation constants (KDs) for each protein/peptide pairing by least squares nonlinear regression. [drawing 1] (1)
(§2) FP was described by the following equation: P=Iparallel-IperpendicularIparallel+Iperpendicular, where “P” denotes polarization, and “I” denotes the fluorescent intensity relative to the plane of incident light. Experimental values were output as millipolarization (mP) units and imported into MATLAB where the following equation was used to determine dissociation constants (KDs) for each protein/peptide pairing by least squares nonlinear regression:
(§3) Pobs=Pmax∙ProteinKD+Protein [picture] (1)
Peptides were initially tested for systematic plate effects across protein dilutions and nonspecific binding to thioredoxin by linear regression analysis and any effects were regressed out. The median baseline control polarization value for each plate was then subtracted from each data point to make each binding curve intersect at zero. Plates with excessive variation in baseline control polarizations on both a global and run-specific manner (Dixon’s Q test, p < 0.05) were excluded from further analysis. Outliers in each binding curve were identified and removed using an iterative procedure as follows. The residuals for each fit were used to calculate a global standard deviation of the residuals (GSDR) for each concentration of SH2 domain over all interactions, and individual data points with residuals < or > two GSDR from the global mean residual were flagged as outliers. The outlier with the largest residual from each interaction was removed and nonlinear regression was again performed. This procedure was repeated if additional outliers were identified for an interaction, discarding the interaction if the number of outliers exceeded three. […] In order to further control our false positive rate against hidden confounding variables producing binding artifacts, we sought to determine whether there was a significant relationship between the strength of an interaction and its technical replication rate at our stringent significance and filtering thresholds. We performed logistic regression on the proportion of successful replicates for each interaction query against KD for all interactions (Figure S15A). […] This is related to the observation that the majority of interactions detected by FP are tight (Figure S15B). With this logit model, we assigned a probability to each peptide-protein interaction in our data by using a binomial proportions test to compare the observed versus the expected replication rate at the particular KD of that interaction (Table S4). […]

[2] = molecular target: T3, PLCG1-NC tandem SH2 domains (Homo sapiens, UniProt P19174); test: FP saturation binding assay; conditions: Protein PLCG1-NC; FP saturation binding, high-confidence ErbB interactions; mean over replicate hits
T3 construct: the tandem protein was included in our analysis with all internal amino acids linking the domains; 6X His; thioredoxin; made in house; host or cells: E. coli BL21(DE3)pLysS
T3 sequence (P19174 550-756 limits assumed): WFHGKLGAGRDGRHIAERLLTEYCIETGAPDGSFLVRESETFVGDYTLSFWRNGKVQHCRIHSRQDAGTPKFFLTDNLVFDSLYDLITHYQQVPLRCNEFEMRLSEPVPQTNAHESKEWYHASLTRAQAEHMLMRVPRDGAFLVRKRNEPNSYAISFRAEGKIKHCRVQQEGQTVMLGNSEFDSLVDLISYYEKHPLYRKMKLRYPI
Method: as §1, with “Peptide/protein samples were incubated for 20 minutes at room temperature in the dark and fluorescence polarization (FP) was measured in an Analyst GT multimode reader (Molecular Devices, Sunnyvale, CA) with excitation and emission wavelengths of 530 nm and 555 nm, respectively.” left out
as §2, §3
Peptides were initially tested for systematic plate effects across protein dilutions and nonspecific binding to thioredoxin by linear regression analysis and any effects were regressed out. The median baseline control polarization value for each plate was then subtracted from each data point to make each binding curve intersect at zero. Plates with excessive variation in baseline control polarizations on both a global and run-specific manner (Dixon’s Q test, p < 0.05) were excluded from further analysis. Outliers in each binding curve were identified and removed using an iterative procedure as follows. The residuals for each fit were used to calculate a global standard deviation of the residuals (GSDR) for each concentration of SH2 domain over all interactions, and individual data points with residuals < or > two GSDR from the global mean residual were flagged as outliers. The outlier with the largest residual from each interaction was removed and nonlinear regression was again performed. This procedure was repeated if additional outliers were identified for an interaction, discarding the interaction if the number of outliers exceeded three. […] In order to further control our false positive rate against hidden confounding variables producing binding artifacts, we sought to determine whether there was a significant relationship between the strength of an interaction and its technical replication rate at our stringent significance and filtering thresholds. We performed logistic regression on the proportion of successful replicates for each interaction query against KD for all interactions (Figure S15A). […] “High-confidence” FP interactions are defined as those having 1 - P(Observed Replication Rate | Expectation) > 0.5 and that have replicated at least twice across independent FP runs. […] The compiled FP data were organized into heatmaps generated by MATLAB and relative binding strength (µM). Peptides without at least one positive hit were classified as “no interaction” if there was no homologous sequence (i.e. identical at the +1 to +4 positions relative to the phosphotyrosine) that produced a positive interaction within the ErbB receptor family.

[3] = molecular target: PIK3R2-NC tandem SH2 domains (Homo sapiens, UniProt O00459); test: FP saturation binding assay
PIK3R3-C SH2 domain = molecular target: T4, PIK3R3-C SH2 domain (Homo sapiens, UniProt Q92569); test: biochemical; format: binding; conditions: Protein PIK3R3-C; FP saturation binding, high-confidence ErbB interactions; mean over replicate hits
T4 construct: thioredoxin; made in house; host or cells: E. coli BL21(DE3)pLysS

RASA1-N SH2 domain = molecular target: T5, RASA1-N SH2 domain (Homo sapiens, UniProt P20936); test: FP saturation binding assay
T5 sequence (P20936 181-272 limits assumed): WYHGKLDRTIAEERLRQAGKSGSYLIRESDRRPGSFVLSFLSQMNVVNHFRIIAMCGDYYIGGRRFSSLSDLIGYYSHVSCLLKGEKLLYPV

SH2D1B SH2 domain = molecular target: T6, SH2D1B SH2 domain (Homo sapiens, UniProt O14796); test: FP saturation binding assay; conditions: FP saturation assay
T6 sequence (O14796 5-101 limits assumed): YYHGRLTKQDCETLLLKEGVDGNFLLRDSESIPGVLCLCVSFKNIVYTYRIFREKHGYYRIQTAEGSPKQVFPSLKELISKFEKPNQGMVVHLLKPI

Sequence of SH2D2A SH2 domain (Q9NP31 95-186 limits assumed): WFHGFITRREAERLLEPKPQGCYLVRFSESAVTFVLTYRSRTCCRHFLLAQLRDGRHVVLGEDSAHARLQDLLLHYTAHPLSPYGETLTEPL
Sequence of PIK3R2-NC tandem SH2 domains (O00459 330-716 limits assumed): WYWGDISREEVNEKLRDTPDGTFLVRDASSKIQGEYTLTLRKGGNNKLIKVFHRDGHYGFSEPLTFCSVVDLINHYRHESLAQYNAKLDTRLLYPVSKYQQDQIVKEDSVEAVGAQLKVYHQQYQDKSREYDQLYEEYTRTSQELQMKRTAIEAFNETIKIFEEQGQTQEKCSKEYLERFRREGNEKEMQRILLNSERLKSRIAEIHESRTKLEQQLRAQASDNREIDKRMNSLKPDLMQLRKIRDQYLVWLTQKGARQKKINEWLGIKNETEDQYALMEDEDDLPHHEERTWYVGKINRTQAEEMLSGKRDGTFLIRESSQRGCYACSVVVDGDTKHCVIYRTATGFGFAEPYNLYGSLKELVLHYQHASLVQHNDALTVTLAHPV

Compound: CC[C@H](C)[C@H](NC(=O)[C@H](CCCNC(=N)N)NC(=O)[C@H](Cc1c[nH]cn1)NC(=O)[C@@H](N)CC(C)C)C(=O)N[C@@H](Cc1ccc(OP(=O)(O)O)cc1)C(=O)N[C@H](C(=O)N[C@@H](Cc1c[nH]cn1)C(=O)N[C@@H](CCC(N)=O)C(=O)N[C@@H](CO)C(=O)N[C@@H](CC(=O)O)C(=O)N[C@H](C(=O)N[C@@H](Cc1c[nH]c2ccccc12)C(=O)N[C@@H](CC(=O)O)C(=O)O)C(C)C)[C@@H](C)O [ErbB1 891 13-mer] (HELM PEPTIDE1{L.H.R.I.[O=C([C@H](Cc1ccc(OP(=O)(O)O)cc1)N[*:1])[*:2]].T.H.Q.S.D.V.W.D}$$$$V2.0)
- Kd (SH2D2A SH2 domain): 13.4 µM

Compound: CC[C@H](C)[C@H](NC(=O)CNC(=O)[C@H](CC(=O)O)NC(=O)[C@H](Cc1ccc(OP(=O)(O)O)cc1)NC(=O)[C@@H]1CCCN1C(=O)[C@H](CCCCN)NC(=O)[C@H](CO)NC(=O)CN)C(=O)N1CCC[C@H]1C(=O)N[C@@H](C)C(=O)N[C@@H](CO)C(=O)N[C@@H](CCC(=O)O)C(=O)N[C@@H](CC(=O)O)C(=O)O [ErbB1 915 13-mer] (HELM PEPTIDE1{G.S.K.P.[O=C([C@H](Cc1ccc(OP(=O)(O)O)cc1)N[*:1])[*:2]].D.G.I.P.A.S.E.D}$$$$V2.0)
- Kd (SH2D1A SH2 domain): 14.5 µM
- Kd (SH2D2A SH2 domain): 4.77 µM

Compound: CC[C@H](C)[C@H](NC(=O)[C@H](Cc1ccc(OP(=O)(O)O)cc1)NC(=O)[C@H](CCC(=O)O)NC(=O)[C@@H]1CCCN1C(=O)[C@@H](NC(=O)[C@@H]1CCCN1)C(C)C)C(=O)N[C@@H](CC(N)=O)C(=O)N[C@@H](CCC(N)=O)C(=O)N[C@@H](CO)C(=O)N[C@H](C(=O)N1CCC[C@H]1C(=O)N[C@@H](CCCCN)C(=O)N[C@@H](CC(=O)O)C(=O)O)C(C)C [ErbB1 1092 13-mer]
- Kd [1]: 8.64 µM
- Kd [2]: 7.58 µM
- Kd [3]: 11.2 µM
- Kd (SH2D2A SH2 domain): 10.9 µM

Compound: NCCCC[C@H](NC(=O)[C@@H]1CCCN1C(=O)[C@H](Cc1ccccc1)NC(=O)[C@H](Cc1ccccc1)NC(=O)[C@H](CC(=O)O)NC(=O)[C@H](CCC(N)=O)NC(=O)[C@H](CCC(N)=O)NC(=O)[C@H](Cc1ccc(OP(=O)(O)O)cc1)NC(=O)[C@H](CC(=O)O)NC(=O)[C@@H]1CCCN1C(=O)[C@H](CC(N)=O)NC(=O)[C@@H](N)CC(=O)O)C(=O)N[C@@H](CC(=O)O)C(=O)O [ErbB1 1172 13-mer] (HELM PEPTIDE1{D.N.P.D.[O=C([C@H](Cc1ccc(OP(=O)(O)O)cc1)N[*:1])[*:2]].Q.Q.D.F.F.P.K.D}$$$$V2.0)
- Kd (PIK3R3-C SH2 domain): 12.6 µM
- Kd [2]: 7.79 µM
- Kd (RASA1-N SH2 domain): 4.17 µM

Compound: CSCC[C@H](NC(=O)[C@H](Cc1ccc(OP(=O)(O)O)cc1)NC(=O)[C@H](CCC(=O)O)NC(=O)[C@H](Cc1ccc(O)cc1)NC(=O)[C@H](CCC(=O)O)NC(=O)[C@@H](N)CCC(=O)O)C(=O)N[C@@H](CC(N)=O)C(=O)N[C@@H](CCCNC(=N)N)C(=O)N[C@@H](CCCNC(=N)N)C(=O)N[C@@H](CCCNC(=N)N)C(=O)N[C@@H](CCCNC(=N)N)C(=O)N[C@@H](Cc1c[nH]cn1)C(=O)N[C@@H](CC(=O)O)C(=O)O [ErbB3 1199 13-mer] (HELM PEPTIDE1{E.E.Y.E.[O=C([C@H](Cc1ccc(OP(=O)(O)O)cc1)N[*:1])[*:2]].M.N.R.R.R.R.H.D}$$$$V2.0)
- Kd (SH2D2A SH2 domain): 13.9 µM

Compound: FGTVpYKGIWVPEd [ErbB4 pY733]
- KD range of recruitment of SH2D1A (SHD1A [sic]) (SH2D1A SH2 domain): in the nM KD range
- KD range of recruitment of SH2D1B (SH2D1B SH2 domain): in the nM KD range

Compound: LDEApYVMAGVGS [ErbB2 pY772]
- KD range of recruitment of SH2D1A (SHD1A [sic]) (SH2D1A SH2 domain): in the nM KD range
- KD range of recruitment of SH2D1B (SH2D1B SH2 domain): in the nM KD range
